{"source": "patent US8258096B2", "about": "“Therapy procedure for drug delivery for trigeminal pain” (The Board of Trustees of the Leland Stanford Junior …, priority 2005, dated 2012)", "format_in_all_cases": "in vivo", "key": {"Sprague-Dawley rats": {"tested_on": "Sprague-Dawley rats", "assay": "Withdrawal latencies after noxious laser thermal stimulation of ears or hindpaws after intranasal administration", "conditions": "rat, intranasal 10 nmoles/kg, tested from five minutes after final application", "source_text": "One way to test activity of an analgesic agent in a rat model is by treatment-induced changes in latencies (times) of withdrawal in response to noxious heating of the skin, typically using an ear, the face or a hindpaw. Thus, application of coherent or non-coherent (non-laser) radiant heat to the ear, the face or hindpaw will elicit rapid withdrawal movements. […] Transmucosal or transdermal administration of analgesic agents to the trigeminal nerve to reduce trigeminal nerve-associated pain can be tested for regional and/or systemic analgesia. The rostral external part of a rat's ear is innervated by a branch of the mandibular nerve, itself a branch of the trigeminal nerve, thus after treatment an increase in latency to withdrawal time would indicate regional analgesia. […]\nSprague-Dawley rats (Charles River Laboratories) were lightly anesthetized with urethane and placed with minimal restraint on a heating pad to maintain their body temperature at 37° C. […] Baseline withdrawal latencies were measured by delivering 4 separate stimuli with a resting period of approximately 15 minutes between each stimulus. […] As described above, testing sessions were videotaped and analyzed."}, "[1]": {"tested_on": "single pain sensing nerve cells in the trigeminal ganglion", "assay": "Nerve impulses of single trigeminal ganglion neurons in response to noxious laser pulses to the face", "conditions": "rat, 10 nmoles applied to the nose, FIG. 2", "protocol": "Sprague-Dawley rats (Charles River Laboratories) were anesthetized with isofluorane and a platinum electrode was inserted transcranially into the trigeminal ganglion. Nerve impulses (action potential) were recorded from single pain sensing nerve cells in the trigeminal ganglion in response to application of noxious laser pulses to the face of the rats. After recording responses to several identical laser pulses, 10 nmoles of oxytocin was applied to the nose of the rats. Thereafter, identical laser pulses were once again applied and recorded."}, "[2]": {"tested_on": "trigeminal nucleus caudalis wide dynamic range (WDR) neurons", "assay": "Electrical stimulation-induced responses of trigeminal nucleus caudalis WDR neurons", "conditions": "rat", "protocol": "Male Sprague-Dawley rats (Charles River Laboratories) were anesthetized with isoflurane and used in the following experiments. In the anesthetized rats, single unit, extracellular recordings were performed in trigeminal nucleus caudalis while stimulating the ipsilateral facial skin with constant-current bipolar electrical stimulation. Epoxylate-insulated, tungsten microelectrodes (10 MOhm) were used under stereotaxic coordinate control.\nShown are responses (action potentials per 30 stimuli) to repeated stimulation of a rat's face before oxytocin administration (pre-oxytocin). After administration with oxytocin at approximately 0.1 IU, responses were recorded every five minutes for 65 minutes. A second administration of oxytocin at the same dosage was administered at approximately 70 minutes after the first dose. The approximate site of the administration of the electrical stimulation is indicated by the black spot on a map of the rat's face (FIG. 3B)."}, "[3]": {"tested_on": "second-order neurons in the trigeminal nucleus caudalis", "assay": "Electrical stimulus-induced windup", "conditions": "rat, intranasal 0.025 ml of 0.05 mg/ml", "source_text": "Male Sprague-Dawley rats (Charles River Laboratories) were anesthetized with isoflurane and used in the following experiments. […] Needle electrodes were inserted subcutaneously at the site indicated in FIG. 5A by the black spot on the rat's head, and the skin was stimulated at 0.66 Hz, 2 msec duration, 3×C-fiber threshold for >25 times."}, "[4]": {"tested_on": "trigeminal nucleus caudalis wide dynamic range (WDR) neurons", "assay": "Long-pulse laser-induced responses of trigeminal nucleus caudalis WDR neurons", "conditions": "rat, intranasal 0.025 ml of 0.05 mg/ml", "protocol": "Male Sprague-Dawley rats (Charles River Laboratories) were anesthetized with isoflurane and used in the following experiments. In the anesthetized rats, single unit, extracellular recordings were performed in trigeminal nucleus caudalis while stimulating the ipsilateral facial skin with diode laser or constant-current bipolar electrical stimulation. Epoxylate-insulated, tungsten microelectrodes (10 MOhm) were used under stereotaxic coordinate control. […] Shown are responses (action potentials per second) to an 8 second-duration, 425 mA intensity laser stimulus to the site indicated by the black spot on a map of the rat's face (FIG. 4E)."}, "[5]": {"conditions": "intranasal approximately 0.1 IU, first dose"}, "[6]": {"conditions": "second intranasal dose approximately 0.1 IU at approximately 70 minutes after the first"}}}
{"molecule": "Tyr-Gly-Gly-Phe-Met [met-enkephalin]", "values": [{"measurement": "regional analgesic effect (ear withdrawal latency)", "setting": "Sprague-Dawley rats; laser to ears, FIG. 1A", "result": "achieved a regional analgesic effect in the head region"}, {"measurement": "systemic analgesic effect (hindpaw withdrawal latency)", "setting": "Sprague-Dawley rats; laser to hindpaws, FIG. 1B", "result": "without a systemic analgesic effect at the hindpaw"}]}
{"molecule": "CC[C@H](C)[C@@H]1NC(=O)[C@H](Cc2ccc(O)cc2)NC(=O)[C@@H](N)CSSC[C@@H](C(=O)N2CCC[C@H]2C(=O)N[C@@H](CC(C)C)C(=O)NCC(N)=O)NC(=O)[C@H](CC(N)=O)NC(=O)[C@H](CCC(N)=O)NC1=O", "note": "[Oxytocin, Cys-Tyr-Ile-Gln-Asn-Cys-Pro-Leu-Gly]", "values": [{"measurement": "neuronal response (average nerve impulses per laser pulse), post- vs pre-treatment", "setting": "[1]", "result": "significantly (p<0.05) reduced"}, {"measurement": "responses (action potentials per 30 stimuli) after first administration", "setting": "[2]; intranasal approximately 0.1 IU, electrical stimulation of face, FIG. 3A", "result": "significant reduction in responses"}, {"measurement": "time after first administration at which reduction in responses began", "setting": "[2]; [5]", "result": 10, "unit": "min"}, {"measurement": "time post treatment until which reduction continued (responses then began to increase)", "setting": "[2]; [5]", "result": 50, "unit": "min"}, {"measurement": "responses (action potentials per 30 stimuli) after second administration", "setting": "[2]; [6]", "result": "significant reduction in responses"}, {"measurement": "time to reduction in responses after second administration", "setting": "[2]; [6]", "result": "≤ 10", "unit": "min"}]}
{"molecule": "C[C@@H](O)[C@@H]1NC(=O)[C@H](CCCCN)NC(=O)[C@@H](Cc2c[nH]c3ccccc23)NC(=O)[C@H](Cc2ccccc2)NC(=O)[C@@H](NC(=O)[C@H](N)Cc2ccccc2)CSSC[C@@H](C(=O)N[C@H](CO)[C@@H](C)O)NC1=O", "note": "[octreotide]", "values": [{"measurement": "reduction of total number of action potentials", "setting": "[3]; 10 minutes after administration vs before", "result": 19.4, "unit": "%"}, {"measurement": "total number of action potentials during the stimulation period", "setting": "[3]; 10 minutes after administration, 25 stimulations at 0.66 Hz, 506 before treatment", "result": 408}, {"measurement": "response five minutes post-treatment", "setting": "[4]; 8 second 425 mA laser stimulus, 5 minutes, FIG. 4B", "result": "no detectable reduction in response"}, {"measurement": "response at 10 minutes post-treatment", "setting": "[4]; 8 second 425 mA laser stimulus, 10 minutes, baseline 42 spikes", "result": 5, "unit": "spikes"}, {"measurement": "reduction of response at 10 minutes post-treatment", "setting": "[4]; 10 minutes vs pre-treatment baseline", "result": 88, "unit": "%"}, {"measurement": "response 25 minutes post-treatment", "setting": "[4]; 25 minutes, FIG. 4D", "result": "recovered"}]}
